# Laboratory results: the supplement of paper PMC12076712
# How the values were obtained:
# Experiment in all cases: pIC50, kinobeads binding competition
# CAMKK2 = CAMKK2 (UniProt Q96RR4)
# Outline: (§1)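 Either living Jurkat cells (60 min at 37 °C, then lysis) or lysates (60 min at 4 °C) were treated with nine compound concentrations from a top of 30 μM, in 1:4 steps for cells and 1:5 steps for lysates. The lysates were from Jurkat cells or a 1:1:1:1 mix of HEK293, K-562, HepG2 and placenta. Kinobeads-bound proteins were digested and quantified by TMT10 LC-MS/MS. pIC50 was calculated by logistic dose-response fitting (R drc package) of fold changes relative to vehicle, in biological duplicates.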
# UniProt Q5VT25 = target: UniProt Q5VT25
# Outline: as §1
# CDK5 = CDK5 (UniProt Q00535)
# Outline: as §1
# NEK1 = target: T1, NEK1 (UniProt Q96PY6)
# T1 sequence (whole entry): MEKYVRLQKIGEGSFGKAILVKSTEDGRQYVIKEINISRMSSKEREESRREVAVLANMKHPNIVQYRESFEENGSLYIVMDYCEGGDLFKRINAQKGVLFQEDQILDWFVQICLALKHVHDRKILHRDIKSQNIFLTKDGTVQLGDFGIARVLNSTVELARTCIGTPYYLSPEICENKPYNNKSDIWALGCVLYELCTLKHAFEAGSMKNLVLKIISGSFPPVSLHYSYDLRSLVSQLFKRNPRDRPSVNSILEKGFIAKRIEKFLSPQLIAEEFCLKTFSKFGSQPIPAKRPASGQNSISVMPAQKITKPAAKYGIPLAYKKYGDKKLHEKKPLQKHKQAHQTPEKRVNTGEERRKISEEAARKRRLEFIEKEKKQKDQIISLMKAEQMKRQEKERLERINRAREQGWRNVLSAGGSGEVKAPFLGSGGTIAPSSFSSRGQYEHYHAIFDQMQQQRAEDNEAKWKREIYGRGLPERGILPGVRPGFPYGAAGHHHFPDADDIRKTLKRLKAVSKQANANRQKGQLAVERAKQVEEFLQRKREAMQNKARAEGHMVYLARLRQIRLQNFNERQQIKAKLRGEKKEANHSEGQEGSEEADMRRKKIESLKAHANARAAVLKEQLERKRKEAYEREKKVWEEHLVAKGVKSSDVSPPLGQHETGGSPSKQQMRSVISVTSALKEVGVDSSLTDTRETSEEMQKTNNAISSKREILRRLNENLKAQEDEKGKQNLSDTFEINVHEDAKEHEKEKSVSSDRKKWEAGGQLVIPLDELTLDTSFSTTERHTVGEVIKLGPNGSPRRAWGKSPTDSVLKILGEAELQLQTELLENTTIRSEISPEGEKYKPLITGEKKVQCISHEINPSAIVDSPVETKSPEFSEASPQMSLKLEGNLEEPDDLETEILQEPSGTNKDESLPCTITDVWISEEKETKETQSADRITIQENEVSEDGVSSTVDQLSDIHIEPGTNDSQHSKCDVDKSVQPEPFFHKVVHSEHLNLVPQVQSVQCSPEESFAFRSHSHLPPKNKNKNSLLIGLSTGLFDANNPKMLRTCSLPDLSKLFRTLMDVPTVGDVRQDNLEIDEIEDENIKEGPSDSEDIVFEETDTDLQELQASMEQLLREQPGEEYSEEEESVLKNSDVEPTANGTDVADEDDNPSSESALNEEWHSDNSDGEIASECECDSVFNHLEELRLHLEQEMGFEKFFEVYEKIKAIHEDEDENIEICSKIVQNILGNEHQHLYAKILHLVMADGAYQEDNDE
# Outline: as §1
# UniProt P49674 = target: UniProt P49674
# Outline: as §1
# AAK1 = AAK1 (UniProt Q2M2I8)
# Outline: as §1
# PIM2 = PIM2 (UniProt Q9P1W9)
# Outline: as §1
# UniProt Q8TF76 = target: T2, UniProt Q8TF76
# T2 sequence (whole entry): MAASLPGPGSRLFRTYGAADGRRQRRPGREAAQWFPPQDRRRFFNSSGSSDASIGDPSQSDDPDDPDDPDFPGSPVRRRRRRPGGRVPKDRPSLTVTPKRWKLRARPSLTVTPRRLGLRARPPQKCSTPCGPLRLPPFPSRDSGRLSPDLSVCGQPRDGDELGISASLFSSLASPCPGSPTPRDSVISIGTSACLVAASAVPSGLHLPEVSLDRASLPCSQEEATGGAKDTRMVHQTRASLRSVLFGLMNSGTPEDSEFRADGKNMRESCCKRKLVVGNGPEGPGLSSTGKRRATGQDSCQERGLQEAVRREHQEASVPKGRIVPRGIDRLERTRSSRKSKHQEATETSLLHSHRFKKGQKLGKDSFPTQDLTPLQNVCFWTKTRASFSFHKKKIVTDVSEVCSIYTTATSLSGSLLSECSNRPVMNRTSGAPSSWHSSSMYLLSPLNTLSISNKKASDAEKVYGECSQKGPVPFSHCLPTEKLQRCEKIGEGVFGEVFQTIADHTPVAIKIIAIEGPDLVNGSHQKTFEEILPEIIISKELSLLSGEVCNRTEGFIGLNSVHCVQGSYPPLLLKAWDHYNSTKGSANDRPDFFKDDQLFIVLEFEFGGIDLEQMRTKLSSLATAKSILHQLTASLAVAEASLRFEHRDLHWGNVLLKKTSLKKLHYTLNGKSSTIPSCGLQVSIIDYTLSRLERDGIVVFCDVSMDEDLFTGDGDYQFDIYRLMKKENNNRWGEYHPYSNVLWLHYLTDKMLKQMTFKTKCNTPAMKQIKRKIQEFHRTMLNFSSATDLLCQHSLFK
# Outline: as §1
# HIPK1 = HIPK1 (UniProt Q86Z02)
# Outline: as §1
# LYN = LYN (UniProt P07948)
# Outline: as §1
# UniProt Q92918 = target: UniProt Q92918
# Outline: as §1
# CDK2 = CDK2 (UniProt P24941)
# Outline: as §1
# Sequence of LYN (P07948 whole entry, looked up): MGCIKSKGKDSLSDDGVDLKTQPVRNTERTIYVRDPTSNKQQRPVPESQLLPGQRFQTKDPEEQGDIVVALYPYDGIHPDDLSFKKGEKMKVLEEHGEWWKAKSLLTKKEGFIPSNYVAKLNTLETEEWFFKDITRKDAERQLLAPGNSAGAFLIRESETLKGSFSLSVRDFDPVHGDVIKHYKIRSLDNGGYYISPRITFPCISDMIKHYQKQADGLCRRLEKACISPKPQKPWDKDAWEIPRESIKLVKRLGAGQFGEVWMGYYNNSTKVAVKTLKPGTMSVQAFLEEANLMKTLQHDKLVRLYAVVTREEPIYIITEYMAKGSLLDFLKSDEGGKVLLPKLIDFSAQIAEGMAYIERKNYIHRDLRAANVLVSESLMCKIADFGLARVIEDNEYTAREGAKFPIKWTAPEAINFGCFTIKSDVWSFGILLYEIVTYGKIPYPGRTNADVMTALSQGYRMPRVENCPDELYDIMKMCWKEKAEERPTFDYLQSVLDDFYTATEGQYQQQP
# Sequence of UniProt P49674 (P49674 whole entry, looked up): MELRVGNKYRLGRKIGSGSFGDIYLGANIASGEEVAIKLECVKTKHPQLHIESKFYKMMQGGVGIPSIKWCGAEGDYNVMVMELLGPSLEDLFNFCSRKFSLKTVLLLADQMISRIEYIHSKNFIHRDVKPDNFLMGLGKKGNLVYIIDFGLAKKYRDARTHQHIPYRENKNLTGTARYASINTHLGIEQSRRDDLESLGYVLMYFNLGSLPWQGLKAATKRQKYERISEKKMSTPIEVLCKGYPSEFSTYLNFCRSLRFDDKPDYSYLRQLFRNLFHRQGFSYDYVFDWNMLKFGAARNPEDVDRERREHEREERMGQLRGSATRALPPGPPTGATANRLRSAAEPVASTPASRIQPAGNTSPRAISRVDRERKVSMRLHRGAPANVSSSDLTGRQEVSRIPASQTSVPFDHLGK
# Sequence of AAK1 (Q2M2I8 whole entry, looked up): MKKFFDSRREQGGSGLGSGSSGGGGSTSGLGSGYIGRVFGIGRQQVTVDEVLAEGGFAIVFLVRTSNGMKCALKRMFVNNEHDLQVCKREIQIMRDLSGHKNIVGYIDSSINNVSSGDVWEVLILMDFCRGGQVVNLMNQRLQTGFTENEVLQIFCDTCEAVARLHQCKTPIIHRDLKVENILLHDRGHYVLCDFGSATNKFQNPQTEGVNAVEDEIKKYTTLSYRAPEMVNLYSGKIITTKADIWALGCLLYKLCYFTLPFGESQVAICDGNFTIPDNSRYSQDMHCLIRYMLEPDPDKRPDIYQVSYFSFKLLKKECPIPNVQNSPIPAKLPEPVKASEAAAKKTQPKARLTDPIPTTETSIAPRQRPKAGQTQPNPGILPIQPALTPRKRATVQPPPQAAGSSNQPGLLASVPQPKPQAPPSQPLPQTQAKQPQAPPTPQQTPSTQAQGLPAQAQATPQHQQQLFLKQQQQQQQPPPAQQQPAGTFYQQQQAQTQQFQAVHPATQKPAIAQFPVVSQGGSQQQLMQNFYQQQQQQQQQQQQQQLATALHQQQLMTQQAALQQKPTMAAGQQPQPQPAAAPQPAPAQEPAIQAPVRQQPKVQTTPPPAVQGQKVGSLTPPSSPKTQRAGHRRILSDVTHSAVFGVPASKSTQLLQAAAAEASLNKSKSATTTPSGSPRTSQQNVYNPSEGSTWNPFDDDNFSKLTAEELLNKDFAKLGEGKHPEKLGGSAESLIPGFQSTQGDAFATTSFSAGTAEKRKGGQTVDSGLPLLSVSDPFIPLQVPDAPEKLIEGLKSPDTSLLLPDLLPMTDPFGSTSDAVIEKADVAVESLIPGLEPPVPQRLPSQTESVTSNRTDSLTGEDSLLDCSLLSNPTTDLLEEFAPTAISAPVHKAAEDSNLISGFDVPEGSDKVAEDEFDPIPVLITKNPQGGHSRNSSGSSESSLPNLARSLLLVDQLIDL
# Sequence of CDK5 (Q00535 whole entry, looked up): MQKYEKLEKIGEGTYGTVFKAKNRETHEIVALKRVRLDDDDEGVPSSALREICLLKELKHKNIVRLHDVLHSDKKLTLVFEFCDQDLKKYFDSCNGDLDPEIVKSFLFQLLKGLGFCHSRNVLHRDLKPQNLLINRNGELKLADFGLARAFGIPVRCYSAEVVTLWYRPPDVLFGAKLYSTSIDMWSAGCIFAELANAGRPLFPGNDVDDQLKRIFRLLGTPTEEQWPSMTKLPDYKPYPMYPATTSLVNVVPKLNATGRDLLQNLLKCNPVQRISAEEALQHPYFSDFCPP
# Sequence of HIPK1 (Q86Z02 whole entry, looked up): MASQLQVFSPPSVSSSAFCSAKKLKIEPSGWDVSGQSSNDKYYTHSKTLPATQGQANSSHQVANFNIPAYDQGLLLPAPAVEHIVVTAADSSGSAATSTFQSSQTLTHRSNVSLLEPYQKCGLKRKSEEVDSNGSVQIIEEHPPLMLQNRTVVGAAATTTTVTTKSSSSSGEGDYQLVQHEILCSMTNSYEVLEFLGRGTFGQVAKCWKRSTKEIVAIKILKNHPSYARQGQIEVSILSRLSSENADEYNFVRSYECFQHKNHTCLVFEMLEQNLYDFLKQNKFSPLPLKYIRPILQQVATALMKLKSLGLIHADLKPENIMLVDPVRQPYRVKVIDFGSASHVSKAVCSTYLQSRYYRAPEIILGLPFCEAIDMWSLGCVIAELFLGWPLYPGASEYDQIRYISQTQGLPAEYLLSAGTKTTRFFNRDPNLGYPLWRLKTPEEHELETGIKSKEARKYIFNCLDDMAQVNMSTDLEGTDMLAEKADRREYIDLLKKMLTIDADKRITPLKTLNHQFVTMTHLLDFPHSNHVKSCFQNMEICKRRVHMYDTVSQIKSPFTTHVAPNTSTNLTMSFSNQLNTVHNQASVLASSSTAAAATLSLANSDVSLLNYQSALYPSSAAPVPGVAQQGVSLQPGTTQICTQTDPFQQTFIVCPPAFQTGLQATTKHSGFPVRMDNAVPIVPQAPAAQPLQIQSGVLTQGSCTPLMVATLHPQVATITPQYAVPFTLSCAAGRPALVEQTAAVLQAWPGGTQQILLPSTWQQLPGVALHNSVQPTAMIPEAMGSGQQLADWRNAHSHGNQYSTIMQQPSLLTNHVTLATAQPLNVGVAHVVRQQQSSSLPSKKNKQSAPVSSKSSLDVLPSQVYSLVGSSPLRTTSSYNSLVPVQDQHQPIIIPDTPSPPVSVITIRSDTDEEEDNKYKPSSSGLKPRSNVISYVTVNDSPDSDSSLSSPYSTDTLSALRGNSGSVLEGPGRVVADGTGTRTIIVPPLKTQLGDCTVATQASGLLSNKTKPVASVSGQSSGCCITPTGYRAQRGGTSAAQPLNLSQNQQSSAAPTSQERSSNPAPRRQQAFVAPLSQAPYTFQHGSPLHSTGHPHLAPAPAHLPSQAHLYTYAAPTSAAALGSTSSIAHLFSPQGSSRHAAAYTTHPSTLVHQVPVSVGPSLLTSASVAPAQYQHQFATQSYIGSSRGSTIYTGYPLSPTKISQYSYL
# Sequence of PIM2 (Q9P1W9 whole entry, looked up): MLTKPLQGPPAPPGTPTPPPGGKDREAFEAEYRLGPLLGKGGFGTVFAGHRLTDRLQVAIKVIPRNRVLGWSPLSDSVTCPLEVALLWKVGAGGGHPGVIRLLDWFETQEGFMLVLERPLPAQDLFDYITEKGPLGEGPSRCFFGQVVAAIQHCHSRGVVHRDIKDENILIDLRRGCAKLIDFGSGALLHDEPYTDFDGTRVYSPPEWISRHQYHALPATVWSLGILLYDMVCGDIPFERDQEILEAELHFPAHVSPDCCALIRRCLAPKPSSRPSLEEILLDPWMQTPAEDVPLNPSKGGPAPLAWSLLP
# Sequence of CAMKK2 (Q96RR4 whole entry, looked up): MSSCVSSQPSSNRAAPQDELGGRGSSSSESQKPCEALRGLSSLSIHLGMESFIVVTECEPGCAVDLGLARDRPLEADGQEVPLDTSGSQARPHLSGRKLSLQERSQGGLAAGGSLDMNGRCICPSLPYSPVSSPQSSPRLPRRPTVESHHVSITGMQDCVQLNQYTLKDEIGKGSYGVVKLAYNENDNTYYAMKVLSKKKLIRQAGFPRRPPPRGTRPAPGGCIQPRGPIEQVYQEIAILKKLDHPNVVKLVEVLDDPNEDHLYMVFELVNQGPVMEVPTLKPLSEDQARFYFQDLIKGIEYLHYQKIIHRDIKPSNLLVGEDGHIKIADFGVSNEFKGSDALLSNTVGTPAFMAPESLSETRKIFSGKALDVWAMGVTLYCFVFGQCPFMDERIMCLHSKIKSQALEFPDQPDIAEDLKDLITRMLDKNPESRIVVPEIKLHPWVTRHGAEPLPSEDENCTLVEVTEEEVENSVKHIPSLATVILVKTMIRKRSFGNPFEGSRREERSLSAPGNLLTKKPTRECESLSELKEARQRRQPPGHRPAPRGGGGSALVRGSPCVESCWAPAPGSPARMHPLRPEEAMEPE
pIC50 (CAMKK2; cell material: Lysate mix),pIC50 (UniProt Q5VT25; cell material: Lysate mix),pIC50 (CDK5; cell material: Lysate mix),pIC50 (NEK1; cell material: Lysate mix),pIC50 (UniProt P49674; cell material: Lysate mix),pIC50 (AAK1; cell material: Lysate mix),pIC50 (PIM2; cell material: Lysate mix),pIC50 (UniProt Q8TF76; cell material: Lysate mix),pIC50 (HIPK1; cell material: Lysate mix),pIC50 (LYN; cell material: Lysate mix),pIC50 (UniProt Q92918; cell material: Lysate mix),pIC50 (CDK2; cell material: Lysate mix),SMILES,pIC50 (CAMKK2; cell material: Jurkat cells),pIC50 (CAMKK2; cell material: Jurkat lysate),pIC50 (UniProt Q5VT25; cell material: Jurkat cells),pIC50 (UniProt Q5VT25; cell material: Jurkat lysate),pIC50 (CDK5; cell material: Jurkat cells),pIC50 (CDK5; cell material: Jurkat lysate),pIC50 (NEK1; cell material: Jurkat cells),pIC50 (NEK1; cell material: Jurkat lysate),pIC50 (UniProt P49674; cell material: Jurkat lysate),pIC50 (AAK1; cell material: Jurkat cells),pIC50 (AAK1; cell material: Jurkat lysate),pIC50 (PIM2; cell material: Jurkat lysate),pIC50 (UniProt Q8TF76; cell material: Jurkat cells),pIC50 (UniProt Q8TF76; cell material: Jurkat lysate),pIC50 (HIPK1; cell material: Jurkat cells),pIC50 (HIPK1; cell material: Jurkat lysate),pIC50 (LYN; cell material: Jurkat lysate),pIC50 (UniProt Q92918; cell material: Jurkat cells),pIC50 (UniProt Q92918; cell material: Jurkat lysate),pIC50 (CDK2; cell material: Jurkat cells),pIC50 (CDK2; cell material: Jurkat lysate),pIC50 (UniProt P49674; cell material: Jurkat cells)
< 4.52,< 4.52,5.93,< 4.52,< 4.52,< 4.52,< 4.52,< 4.52,4.78,5.98,4.78,6.47,CCNC(=O)c1cc(Nc2cc(C)[nH]n2)nc(N2CCN(Cc3ccc(S(=O)(=O)F)cc3)CC2)n1,–,–,–,–,–,–,–,–,–,–,–,–,–,–,–,–,–,–,–,–,–,–
< 4.52,< 4.52,6.02,< 4.52,< 4.52,< 4.52,< 4.52,< 4.52,5.06,5.54,4.77,6.2,C#CCNC(=O)c1cc(Nc2cc(C)[nH]n2)nc(N2CCN(Cc3ccc(S(=O)(=O)F)cc3)CC2)n1,–,–,–,–,–,–,–,–,–,–,–,–,–,–,–,–,–,–,–,–,–,–

# The next lines start with the compound.
SMILES,pIC50 (CAMKK2; cell material: Lysate mix),pIC50 (UniProt Q5VT25; cell material: Lysate mix),pIC50 (CDK5; cell material: Lysate mix),pIC50 (NEK1; cell material: Lysate mix),pIC50 (UniProt P49674; cell material: Lysate mix),pIC50 (AAK1; cell material: Lysate mix),pIC50 (PIM2; cell material: Lysate mix),pIC50 (UniProt Q8TF76; cell material: Lysate mix),pIC50 (HIPK1; cell material: Lysate mix),pIC50 (LYN; cell material: Lysate mix),pIC50 (UniProt Q92918; cell material: Lysate mix),pIC50 (CDK2; cell material: Lysate mix),pIC50 (CAMKK2; cell material: Jurkat cells),pIC50 (CAMKK2; cell material: Jurkat lysate),pIC50 (UniProt Q5VT25; cell material: Jurkat cells),pIC50 (UniProt Q5VT25; cell material: Jurkat lysate),pIC50 (CDK5; cell material: Jurkat cells),pIC50 (CDK5; cell material: Jurkat lysate),pIC50 (NEK1; cell material: Jurkat cells),pIC50 (NEK1; cell material: Jurkat lysate),pIC50 (UniProt P49674; cell material: Jurkat lysate),pIC50 (AAK1; cell material: Jurkat cells),pIC50 (AAK1; cell material: Jurkat lysate),pIC50 (PIM2; cell material: Jurkat lysate),pIC50 (UniProt Q8TF76; cell material: Jurkat cells),pIC50 (UniProt Q8TF76; cell material: Jurkat lysate),pIC50 (HIPK1; cell material: Jurkat cells),pIC50 (HIPK1; cell material: Jurkat lysate),pIC50 (LYN; cell material: Jurkat lysate),pIC50 (UniProt Q92918; cell material: Jurkat cells),pIC50 (UniProt Q92918; cell material: Jurkat lysate),pIC50 (CDK2; cell material: Jurkat cells),pIC50 (CDK2; cell material: Jurkat lysate),pIC50 (UniProt P49674; cell material: Jurkat cells)
O=C(NCCNC(=O)c1cc(Nc2cc(C3CC3)[nH]n2)nc(N2CCN(Cc3ccc(S(=O)(=O)F)cc3)CC2)n1)OC1CC/C=C/CCC1 (centres undefined),5,< 4.52,5.12,< 4.52,< 4.52,< 4.52,< 4.52,< 4.52,< 4.52,< 4.52,< 4.52,5.19,6.18,5.1,< 4.52,< 4.52,6.34,5.1,5.43,< 4.52,< 4.52,< 4.52,< 4.52,< 4.52,< 4.52,< 4.52,5.3,< 4.52,< 4.52,5.32,< 4.52,6.45,5.06,–
Cc1cc(Nc2cc(C(=O)NCCNC(=O)OC3CC/C=C/CCC3)nc(N3CCN(Cc4ccc(S(=O)(=O)F)cc4)CC3)n2)n[nH]1 (centres undefined),< 4.52,< 4.52,4.92,< 4.52,< 4.52,< 4.52,< 4.52,< 4.52,< 4.52,< 4.52,< 4.52,4.74,–,–,–,–,–,–,–,–,–,–,–,–,–,–,–,–,–,–,–,–,–,–
CCNC(=O)c1cc(Nc2cc(C3CC3)[nH]n2)nc(N2CCN(Cc3ccc(S(=O)(=O)F)cc3)CC2)n1,5.6,< 4.52,6.06,4.86,< 4.52,< 4.52,< 4.52,< 4.52,5.78,5.92,5.8,6.29,–,–,–,–,–,–,–,–,–,–,–,–,–,–,–,–,–,–,–,–,–,–
C#CCNC(=O)c1cc(Nc2cc(C3CC3)[nH]n2)nc(N2CCN(Cc3ccc(S(=O)(=O)F)cc3)CC2)n1,5.88,< 4.52,6.48,–,< 4.52,< 4.52,< 4.52,< 4.52,6,6.03,5.9,6.7,5.88,5.7,5.28,< 4.52,6.74,5.96,5.94,< 4.52,< 4.52,5.43,< 4.52,< 4.52,5.26,< 4.52,6.08,5.37,5.41,5.88,5.35,6.8,6.16,5.4
